Measurements taken from patent US8809377B2, “Deubiquitinase inhibitors and methods for use of the same” (The Regents of the University of Michigan, priority 2010, dated 2014).

Key:
[1] = tested on: Encephalomyocarditis virus; test: Encephalomyocarditis virus plaque assay; settings: 5 μM, 30 min pre-treatment, listed as HWP1130
UCH37 = biological target: T1, UCH37 (Homo sapiens, UniProt Q9Y5K5); test: HA-UbVs labeling of UCH37; assay type: cell-based; settings: Z138 cells, 1, 5 or 10 μM, 1 hour
T1 construct: endogenous in cells; host or cells: Z138
T1 sequence (Q9Y5K5 whole entry): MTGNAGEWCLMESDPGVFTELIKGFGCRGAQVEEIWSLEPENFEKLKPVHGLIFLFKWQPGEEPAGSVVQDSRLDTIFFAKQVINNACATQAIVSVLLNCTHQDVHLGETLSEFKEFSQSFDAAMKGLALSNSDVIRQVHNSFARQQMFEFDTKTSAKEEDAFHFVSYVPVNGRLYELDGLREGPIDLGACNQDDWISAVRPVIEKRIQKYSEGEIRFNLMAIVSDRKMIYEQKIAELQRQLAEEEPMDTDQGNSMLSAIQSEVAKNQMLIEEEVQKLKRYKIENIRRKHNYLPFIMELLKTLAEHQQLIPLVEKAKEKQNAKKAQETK
Method: (§1) To assay for changes in activity of cellular deubiquitinase enzymes, Z138 and HEK293 cells were lysed in DUB buffer (50 mM Tris pH 7.4, 5 mM MgCl2, 150 mM NaCl) for 10 min at 4° C. The lysates were centrifuged at 20,000 RFC for 10 min and the supernatant was used for DUB labeling. Equal amounts of lysate were incubated with 500 ng of HA-UbVs for 1 hr at room temperature, followed by boiling in reducing sample buffer and resolving by SDS-PAGE. After protein transfer to nitrocellulose membranes, HA immunoblotting was used to detect DUB labeling.
(§2) Hemagglutinin-tagged ubiquitin vinyl methyl sulfone (HA-UbVs) acts as a DUB suicide substrate, forming a covalent adduct with active DUB enzymes. Specific cellular DUBs can be identified by anti-HA blotting, as previously shown in various cell types. Changes in specific DUB activities are measurable by monitoring HA-labeling in lysates from control and treated cells. Z138 cells were treated with WP1130 at 1, 5, or 10 μM or AG490 at 250 μM for 1 hours and lysed. 20 μg of clarified supernatant was incubated with 200 nM of HA-UbVS for 1 hr at 37° C. […] An in vitro analysis using cell lysates was performed to investigate direct DUB inhibition by WP1130. Briefly, untreated Z138 cell lysates were incubated with 5 μM WP1130 or vehicle alone for one hour at 37° C., followed by labeling with HA-UbVs.

Mcl1 = test: Western blot of Mcl-1 levels; assay type: cell-based
Method: (§3) Total cell lysates were prepared by boiling and sonicating cell pellets in 1× Laemmli reducing sample buffer. To prepare detergent soluble and insoluble fractions, cells were lysed in cold isotonic lysis buffer [10 mM Tris-HCl (pH 7.5), 0.5% Triton X-100, 150 mM NaCl along with Mini-Complete and PhosSTOP] for 15 min on ice and centrifuged 10 min at 20,000 RCF. The clarified supernatant was used as the detergent soluble cell fraction. The residual pellet was washed and extracted in Laemmli reducing sample buffer and briefly sonicated to derive the detergent insoluble fraction. Equal volumes of cellular lysate or equal protein amounts were electrophoresed on SDS-PAGE gels and transferred to nitrocellulose membranes (Whatmann, Dassel, Germany). Proteins were detected by immunoblotting.
Whole cell lysates were prepared by boiling and sonicating the cell pellets in 1× Laemmli reducing sample buffer. To prepare detergent soluble and insoluble fractions, cells were lysed in cold isotonic lysis buffer [10 mM Tris-HCl (pH 7.5), 0.5% Triton X-100, 150 mM NaCl along with Mini-Complete and PhosSTOP] for 15 min on ice and centrifuged 10 minutes at 20,000 RCF. The clarified supernatant was used as a source of the detergent soluble cell fraction. The detergent insoluble fraction was extracted by the sonication of residual pellet in equal volumes of boiling 1× Laemmli reducing sample buffer. […]

USP14 = biological target: T2, USP14 (Homo sapiens, UniProt P54578); test: HA-UbVs labeling of USP14; assay type: cell-based; settings: Z138 cells, 1, 5 or 10 μM, 1 hour
T2 construct: endogenous in cells; host or cells: Z138
T2 sequence (P54578 whole entry): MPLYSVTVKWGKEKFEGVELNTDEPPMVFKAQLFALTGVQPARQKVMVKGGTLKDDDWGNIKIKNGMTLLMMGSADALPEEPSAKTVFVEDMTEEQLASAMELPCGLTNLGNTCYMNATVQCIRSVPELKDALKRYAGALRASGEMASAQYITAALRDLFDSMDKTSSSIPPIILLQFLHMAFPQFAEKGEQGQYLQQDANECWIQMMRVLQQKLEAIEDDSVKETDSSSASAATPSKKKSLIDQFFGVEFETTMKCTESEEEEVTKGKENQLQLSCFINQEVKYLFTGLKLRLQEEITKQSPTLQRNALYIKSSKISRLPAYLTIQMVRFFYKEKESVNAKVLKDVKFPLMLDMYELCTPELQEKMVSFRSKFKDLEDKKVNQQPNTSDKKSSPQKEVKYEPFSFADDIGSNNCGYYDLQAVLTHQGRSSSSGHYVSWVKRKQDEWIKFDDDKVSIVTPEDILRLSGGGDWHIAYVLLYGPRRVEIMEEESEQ
Method: as §1, §2

Toxoplasma gondii = Toxoplasma gondii replication in human foreskin fibroblasts; assay type: cell-based
Method: Primary human foreskin fibroblasts (HFF) were infected with trachyzoites in the presence of WP1130 or vehicle control for 24 hours. […] 1.25×10^5 tachyziotes (RH strain) (MOI=1) were added to each well of a chamber slide in the presence of WP1130 or vehicle control. At 24 hours post infection, cells were fixed in 4% paraformaldehyde for fifteen minutes. Cells were then washed with PBS and analyzed by immunofluorescence microscopy. Parasites were stained with an anti-SAG 1 antibody (the immunodominant surface antigen of T. gondii) followed by an Alexa 594-labeled secondary antibody and DAPI. For quantitative analysis the number of parasites/vacuole were counted.
WP1130 also blocks the replication of the apicomplexan Toxoplasma gondii in primary human foreskin fibroblasts. Cells were treated with WP1130 and infected with tachyziotes (RH strain) (MOI 1) for 24 hr before performing immunofluorescence and counting parasite-containing vacuoles.

[2] = tested on: Vesicular Stomatitis Virus (VSV); assay type: cell-based
pStat5 = test: Western blot of pStat5; assay type: cell-based; settings: BV-173 cells, 5 μM, 1 or 2 hours
Method: as §3
(§4) Cancer Res, 2010. 70(22): p. […] Blood, 2011. 117(11): p. […] Biochem Pharmacol, 2011. 82(4): p. […] Blood, 2007. 109(8): p. 3470-8.

La Crosse virus (LaCV) = test: La Crosse virus plaque assay; settings: human neurons (Be2-c), 5 μM, 30 min pre-treatment
Murine norovirus (MNV) = test: Murine norovirus plaque assay; assay type: cell-based; settings: Norwalk virus
Method: Viral titers were determined by plaque assay.
Cells were treated with IFN-β as a positive anti-viral control.

p53 = p53 immunoblot; assay type: cell-based; settings: Z138 cells
Method: Whole cell lysates were prepared by boiling and sonicating the cell pellets in 1× Laemmli reducing sample buffer. To prepare detergent soluble and insoluble fractions, cells were lysed in cold isotonic lysis buffer [10 mM Tris-HCl (pH 7.5), 0.5% Triton X-100, 150 mM NaCl along with Mini-Complete and PhosSTOP] for 15 min on ice and centrifuged 10 minutes at 20,000 RCF. The clarified supernatant was used as a source of the detergent soluble cell fraction. The detergent insoluble fraction was extracted by the sonication of residual pellet in equal volumes of boiling 1× Laemmli reducing sample buffer. Equal volumes of cellular lysate or equal protein amounts were electrophoresed on SDS-PAGE gels.
An increase in p53 protein levels was observed upon WP1130 treatment. Co-treatment of Z138 cells with cycloheximide (50 μg/mL) and WP1130 confirmed the stabilization rather than induction of p53 protein. Furthermore, a rapid decline in MCL-1 levels upon WP1130 treatment was observed. To re-confirm the role played by USP9x and USP5 in regulating the levels of MCL-1 and p53 respectively, a siRNA based knockdown of USP9x and USP5 in HEK293T cells was performed.

DUB activity = test: Western / HA-UbVS labeling of DUB activity in intact cells; assay type: cell-based
Method: as §1, with “leukemic” for “Z138 and HEK293”, “RCF” for “RFC”, “SDS-PAGE.” for “SDS-PAGE. After protein transfer to nitrocellulose membranes,”
as §1, §4

[3] = primary human foreskin fibroblasts, RH strain MOI 1, 24 hr

SMILES: CCC[C@H](NC(=O)/C(C#N)=C/c1cccc(Br)n1)c1ccccc1 [WP1130]
- Log inhibition by plaque assay [1]: 2 log
- HA-UbVS labeling of UCH37 (UCH37): dose-dependent and time reduction in the labeling
- MCL-1 levels (Mcl1; Z138 cells): rapid decline
- Mcl-1 levels (Mcl1; imatinib sensitive and resistant CML cells): reduced
- HA-UbVS labeling of USP14 (USP14): dose-dependent and time reduction in the labeling
- number of parasites per vacuole (Toxoplasma gondii; HFF, 5 μM, 24 hours post infection): significantly reduced
- decrease in the vacuoles containing 4 parasites (Toxoplasma gondii; [3]): ~5 fold
- increase in the number of vacuoles containing only 1 parasite (Toxoplasma gondii; [3]): ~3 fold
- block of virus infection [2]: not
- phosphorylation of Stat5 (pStat5): loss of phosphorylation of Stat5
- Log inhibition by plaque assay (La Crosse virus (LaCV)): 2-2.5 log
- Log inhibition by plaque assay (La Crosse virus (LaCV); listed as HWP1130): 2.5 log
- log reduction at 5 µM (Murine norovirus (MNV); RAW264.7, MNV, murine macrophages (RAW264.7 or bone marrow derived), 5 μM, 30 min pre-treatment, 8-12 hr, read-out: Log inhibition by plaque assay): ~2
- EC50 (Murine norovirus (MNV); RAW264.7, MNV-1, RAW 264.7, 12 hours postinfection, read-out: anti-viral EC50 activity): 1900 nM
- p53 protein levels (p53): increase
- blocking MNV-1 or DUB activation associated with MNV-1 infection (DUB activity; RAW 264.7, 1.25 μM): ineffective
- DUB activity induced by MNV-1 infection (HA-UbVS) (DUB activity; RAW 264.7, anti-viral effective concentrations): block DUB activity
